Measurements from patent US11479802B2, “Assays for screening activity of modulators of members of the hydroxy steroid (17-beta) dehydrogenase (HSD17B) family” (Regeneron Pharmaceuticals, Inc., priority 2017, dated 2022).

Molecular target: T1, human HSD17B13 (Homo sapiens, UniProt Q7Z5P4)
T1 sequence (Q7Z5P4 20-300): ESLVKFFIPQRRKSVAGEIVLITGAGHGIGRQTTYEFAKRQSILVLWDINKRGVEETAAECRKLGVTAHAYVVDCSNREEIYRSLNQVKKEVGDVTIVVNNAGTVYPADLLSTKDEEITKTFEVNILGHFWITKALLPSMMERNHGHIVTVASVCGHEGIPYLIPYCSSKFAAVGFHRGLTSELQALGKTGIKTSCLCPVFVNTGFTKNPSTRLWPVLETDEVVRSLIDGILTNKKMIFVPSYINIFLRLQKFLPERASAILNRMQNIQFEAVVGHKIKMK
Test: Substrate screening of steroid and bioactive lipid libraries against purified recombinant HSD17B13 (NADH-linked luciferase assay)
Type: biochemical
Conditions: for HSD17B13 Enzymatic Activity Relative Light Units: 500 μM NAD+, 100 ng enzyme, 3 hours at 23° C.; for HSD17B13 Enzymatic Activity Percent Estradiol Control: normalized to 50 μM estradiol after subtraction of 5% DMSO
Procedure, shortened: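 Substrates (bioactive lipids 5 μM, steroids 50 μM; 5% DMSO) tested with 500 μM NAD+ and 100 ng recombinant human HSD17B13 in 0.2 M Tris-HCl pH 7.5, 3 h, 23° C. Luminescent NADH detection followed 1 h later; RLU normalized to estradiol (50 μM, 100%) and DMSO (0%) controls.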

[1] = Bioactive Lipid Library, 5 μM bioactive lipid (Estradiol Control 50 μM)
[2] = Bioactive Lipid Library, 5 μM bioactive lipid

SMILES | HSD17B13 Enzymatic Activity Relative Light Units [1] | HSD17B13 Enzymatic Activity Percent Estradiol Control [2] | HSD17B13 Enzymatic Activity Relative Light Units (Steroid Library, 50 μM steroid) | HSD17B13 Enzymatic Activity Percent Estradiol Control (Steroid Library, 50 μM steroid)
CCCCC[C@@H](/C=C/C=C\CCCCCCCC(=O)O)OO [13(S)-HpODE] | 183040 RLU | −7.72% | – | –
CCCCC[C@@H](/C=C/C=C\C/C=C\CCCCC(=O)O)OO [13(S)-HpOTrE(γ)] | 268840 RLU | −1.34% | – | –
CC/C=C\C[C@@H](/C=C/C=C\CCCCCCCC(=O)O)OO [13(S)-HpOTrE] | 35320 RLU | −18.70% | – | –
O=C(O)CCCC=C1CC2CC(O)C(C#CC(O)C3CCCCC3)C2C1 (stereo not shown) [13,14-dehydro-15-cyclohexyl Carbaprostacyclin] | 356360 RLU | 5.79% | – | –
C[C@@H](O)CCC[C@H](O)CC[C@H]1[C@H](O)CC(=O)[C@@H]1CCCCCCC(=O)O [13,14-dihydro-19(R)-hydroxy Prostaglandin E1] | 337040 RLU | 4.26% | – | –
CC/C=C\C[C@H]1C(=O)C=C[C@@H]1CCCCCCCC(=O)O [13-epi-12-oxo Phytodienoic Acid] | 320640 RLU | 2.97% | – | –
CCCCC[C@H]1O[C@H]1C/C=C\C/C=C\C/C=C\CCCC(=O)NCCO [14(15)-EET Ethanolamide] | 428760 RLU | 7.83% | – | –
C[C@@H](O)CCC[C@@H](O)/C=C/[C@H]1[C@H](O)CC(=O)[C@@H]1CCCCCCC(=O)O [15(R),19(R)-hydroxy Prostaglandin E1] | 333200 RLU | 3.96% | – | –
C[C@@H](O)CCC[C@@H](O)/C=C/[C@H]1[C@H](O)CC(=O)[C@@H]1C/C=C\CCCC(=O)O [15(R),19(R)-hydroxy Prostaglandin E2] | 346000 RLU | 4.97% | – | –
C[C@@H](O)CCC[C@@H](O)/C=C/[C@@H]1[C@@H](C/C=C\CCCC(=O)O)[C@@H](O)C[C@H]1O [15(R),19(R)-hydroxy Prostaglandin F2α] | 382720 RLU | 7.88% | – | –
CCCCC[C@@H](O)/C=C/C=C\CCCCCCCCCC(=O)O [15(R)-HEDE] | 1862960 RLU | 117.20% | – | –
CCCCC[C@@H](O)/C=C/C=C\C/C=C\C/C=C\CCCC(=O)O [15(R)-HETE] | 701120 RLU | 61.00% | – | –
CC(C)OC(=O)CCC/C=C\C[C@@H]1[C@@H](/C=C/[C@H](O)COc2cccc(C(F)(F)F)c2)[C@H](O)C[C@@H]1O [15(S)-Fluprostenol isopropyl ester] | 410960 RLU | 10.11% | – | –
CCCCC[C@H](O)/C=C/C=C\CCCCCCCCCC(=O)O [15(S)-HEDE] | 1060680 RLU | 57.54% | – | –
CC/C=C\C[C@H](O)/C=C/C=C\C/C=C\C/C=C\CCCC(=O)O [15(S)-HEPE] | 505240 RLU | 16.24% | – | –
CCCCC[C@H](O)/C=C/C=C\C/C=C\C/C=C\CCCC(=O)NCCO [15(S)-HETE Ethanolamide] | 535680 RLU | 19.97% | – | –
CCCCC[C@H](O)/C=C/C=C\C/C=C\C/C=C\CCCC(=O)O [15(S)-HETE] | 1107240 RLU | 24.49% | – | –
CCCCC[C@H](O)/C=C/C=C\C/C=C\CCCCCCC(=O)O [15(S)-HETrE] | 638320 RLU | 26.14% | – | –
CCCCC[C@@H](/C=C/C=C\CCCCCCCCCC(=O)O)OO [15(S)-HpEDE] | 232720 RLU | −4.02% | – | –
CC/C=C\C[C@@H](/C=C/C=C\C/C=C\C/C=C\CCCC(=O)O)OO [15(S)-HpEPE] | 316200 RLU | 2.18% | – | –
CCCCCC(=O)/C=C/C=C\CCCCCCCCCC(=O)O [15-OxoEDE] | 261480 RLU | −1.88% | – | –
CCCCCC(=O)/C=C/C=C\C/C=C\C/C=C\CCCC(=O)O [15-OxoETE] | 616120 RLU | −8.98% | – | –
CCCCC(C)(C)[C@H](O)/C=C/[C@H]1[C@H](O)CC(=O)[C@@H]1C/C=C\CCCC(=O)Oc1ccc(NC(=O)c2ccc(NC(C)=O)cc2)cc1 [16,16-dimethyl Prostaglandin E2 p-(p-acetamidobenzamido) phenyl ester] | 322280 RLU | 3.10% | – | –
CC1(C)[C@@H](O)CC[C@]2(C)[C@H]3C(=O)C=C4[C@@H]5C[C@@](C)(C(=O)O)CC[C@]5(C)CC[C@@]4(C)[C@]3(C)CC[C@@H]12 [18beta-Glycyrrhetinic acid] | – | – | 32720 RLU | −2.23%
C[C@@H](O)CCC[C@H](O)/C=C/[C@H]1C=CC(=O)[C@@H]1C/C=C\CCCC(=O)O [19(R)-hydroxy Prostaglandin A2] | 323320 RLU | 3.18% | – | –
C[C@@H](O)CCC[C@H](O)/C=C/[C@H]1[C@H](O)CC(=O)[C@@H]1CCCCCCC(=O)O [19(R)-hydroxy Prostaglandin E1] | 333160 RLU | 3.96% | – | –
C[C@@H](O)CCC[C@H](O)/C=C/[C@H]1[C@H](O)CC(=O)[C@@H]1C/C=C\CCCC(=O)O [19(R)-hydroxy Prostaglandin E2] | 347280 RLU | 5.07% | – | –
C[C@@H](O)CCC[C@H](O)/C=C/[C@@H]1[C@@H](CCCCCCC(=O)O)[C@@H](O)C[C@H]1O [19(R)-hydroxy Prostaglandin F1α] | 207560 RLU | −5.97% | – | –
C[C@@H](O)CCC[C@H](O)/C=C/[C@@H]1[C@@H](C/C=C\CCCC(=O)O)[C@@H](O)C[C@H]1O [19(R)-hydroxy Prostaglandin F2α] | 371400 RLU | 6.98% | – | –
